Calls of active or inactive are those of the source.
Assays:
[1] = target: T1, RNA-binding protein pos-1 (Caenorhabditis elegans, UniProt G5EF15); experiment: disruptors of C. elegans POS-1 RNA interaction – biochemical, fluorescence polarization, dose response (AID 1964);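 also: purified POS-1 fused to maltose binding protein made in E. coli; potency of compounds blocking POS-1 binding to fluorescent RNA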
T1 sequence (G5EF15 whole entry): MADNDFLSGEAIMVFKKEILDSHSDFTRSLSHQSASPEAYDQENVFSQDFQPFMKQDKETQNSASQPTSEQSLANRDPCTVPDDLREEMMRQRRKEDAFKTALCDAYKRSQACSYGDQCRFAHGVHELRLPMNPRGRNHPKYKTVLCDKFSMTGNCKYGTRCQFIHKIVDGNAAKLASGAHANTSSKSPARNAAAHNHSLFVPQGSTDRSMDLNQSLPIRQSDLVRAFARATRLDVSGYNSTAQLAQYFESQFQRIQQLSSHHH

[2] = target: UDP-galactopyranose mutase (Mycobacterium tuberculosis, UniProt P9WIQ1); experiment: Inhibitors of Mycobacterium tuberculosis UDP-galactopyranose mutase (UGM) enzyme Measured in Biochemical System Using Plate Reader - 2105-02_Inhibitor_Dose_CherryPick_Activity. [Related pubchem assays (depositor defined):AID504439]
[3] = target: T2, Nuclear receptor subfamily 0 group B member 1 (Homo sapiens, UniProt P51843); experiment: Luminescence-based cell-based high throughput dose response assay for inhibitors of the orphan nuclear receptor subfamily 0, group B, member 1 (DAX1; NR0B1). [Related pubchem assays (depositor defined):AID504766, AID504790]; type: functional
T2 sequence (P51843 whole entry): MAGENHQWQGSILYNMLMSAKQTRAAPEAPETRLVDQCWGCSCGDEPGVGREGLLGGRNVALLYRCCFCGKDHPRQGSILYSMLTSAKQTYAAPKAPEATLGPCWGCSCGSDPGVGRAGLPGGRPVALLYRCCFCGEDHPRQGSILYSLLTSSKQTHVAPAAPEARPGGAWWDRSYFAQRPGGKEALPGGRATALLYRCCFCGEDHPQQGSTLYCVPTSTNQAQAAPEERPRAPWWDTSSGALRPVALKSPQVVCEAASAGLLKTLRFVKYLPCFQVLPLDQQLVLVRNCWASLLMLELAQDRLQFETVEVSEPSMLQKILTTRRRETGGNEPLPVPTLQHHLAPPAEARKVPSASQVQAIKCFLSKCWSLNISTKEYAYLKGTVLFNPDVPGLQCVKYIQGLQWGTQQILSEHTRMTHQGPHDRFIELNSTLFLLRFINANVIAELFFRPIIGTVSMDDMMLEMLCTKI

Major prion protein = Major prion protein (Homo sapiens, UniProt P04156); type: functional, cell-based
HEK293 = experiment: cells; type: functional, cell-based; settings: Homo sapiens
Hexokinase HKDC1 = target: T3, Hexokinase HKDC1 (Homo sapiens, UniProt Q2TB90); experiment: SAR analysis of small molecule inhibitors of hexokinase domain containing I (HKDC1). [Related pubchem assays (depositor defined):AID493160, AID493190]; type: functional
T3 sequence (Q2TB90 whole entry): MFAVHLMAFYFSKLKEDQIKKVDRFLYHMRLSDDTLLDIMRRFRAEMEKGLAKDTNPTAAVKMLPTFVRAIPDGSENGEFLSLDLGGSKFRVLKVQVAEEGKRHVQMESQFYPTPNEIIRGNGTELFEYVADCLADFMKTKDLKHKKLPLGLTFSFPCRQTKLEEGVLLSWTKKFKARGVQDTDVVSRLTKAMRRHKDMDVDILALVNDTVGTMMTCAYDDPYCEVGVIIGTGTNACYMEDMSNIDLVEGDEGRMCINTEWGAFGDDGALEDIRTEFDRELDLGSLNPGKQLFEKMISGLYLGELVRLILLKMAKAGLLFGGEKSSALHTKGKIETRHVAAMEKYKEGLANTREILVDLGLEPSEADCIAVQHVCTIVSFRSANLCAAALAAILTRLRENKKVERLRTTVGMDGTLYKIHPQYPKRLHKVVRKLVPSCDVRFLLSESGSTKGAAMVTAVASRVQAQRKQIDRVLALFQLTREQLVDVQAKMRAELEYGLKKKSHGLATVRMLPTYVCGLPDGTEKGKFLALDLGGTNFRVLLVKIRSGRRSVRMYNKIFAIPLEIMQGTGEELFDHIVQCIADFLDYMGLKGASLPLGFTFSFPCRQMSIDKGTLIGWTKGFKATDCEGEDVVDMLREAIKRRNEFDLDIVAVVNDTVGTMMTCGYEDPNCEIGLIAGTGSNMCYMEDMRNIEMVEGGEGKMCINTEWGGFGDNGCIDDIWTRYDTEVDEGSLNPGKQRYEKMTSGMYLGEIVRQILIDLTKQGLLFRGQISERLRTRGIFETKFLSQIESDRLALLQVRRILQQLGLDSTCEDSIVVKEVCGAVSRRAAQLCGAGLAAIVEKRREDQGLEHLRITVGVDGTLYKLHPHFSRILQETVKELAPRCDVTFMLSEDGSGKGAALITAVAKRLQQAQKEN

Hexokinase-1 = Hexokinase-1 (Homo sapiens, UniProt P19367); experiment: SAR analysis of small molecule inhibitors of hexokinase domain containing I (HKDC1) in the hexokinase 1 selectivity assay. [Related pubchem assays (depositor defined):AID493160, AID493190]; type: functional
Protein RecA = target: T4, Protein RecA (Mycobacterium tuberculosis, UniProt P9WHJ3); experiment: Fluorescence Cell-Free Homogeneous Dose Retest to Identify Inhibitors of RecA-Intein Splicing Activity. [Related pubchem assays (depositor defined):AID2097, AID2223, AID489010, AID492950]; type: functional
T4 sequence (P9WHJ3 whole entry): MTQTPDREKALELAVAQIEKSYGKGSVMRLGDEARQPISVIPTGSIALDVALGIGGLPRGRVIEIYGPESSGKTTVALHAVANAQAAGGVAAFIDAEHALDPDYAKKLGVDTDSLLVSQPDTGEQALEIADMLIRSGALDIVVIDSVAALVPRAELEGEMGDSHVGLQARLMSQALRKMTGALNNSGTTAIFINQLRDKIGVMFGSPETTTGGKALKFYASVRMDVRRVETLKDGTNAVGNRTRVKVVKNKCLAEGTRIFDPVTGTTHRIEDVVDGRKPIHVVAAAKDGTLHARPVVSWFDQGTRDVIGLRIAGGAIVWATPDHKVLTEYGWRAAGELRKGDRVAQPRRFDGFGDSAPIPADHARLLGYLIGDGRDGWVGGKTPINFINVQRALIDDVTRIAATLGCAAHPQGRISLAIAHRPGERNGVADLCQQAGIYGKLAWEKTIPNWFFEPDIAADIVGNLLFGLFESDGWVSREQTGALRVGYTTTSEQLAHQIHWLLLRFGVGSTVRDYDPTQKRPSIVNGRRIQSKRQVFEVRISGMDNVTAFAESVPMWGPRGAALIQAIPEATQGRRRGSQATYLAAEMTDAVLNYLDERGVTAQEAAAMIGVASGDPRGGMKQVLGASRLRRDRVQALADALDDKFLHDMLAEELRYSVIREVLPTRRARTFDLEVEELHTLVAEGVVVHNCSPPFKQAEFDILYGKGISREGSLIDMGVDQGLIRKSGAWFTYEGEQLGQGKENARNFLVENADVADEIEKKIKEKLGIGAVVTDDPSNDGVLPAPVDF

[4] = target: T5, Replicative DNA helicase DnaB (Mycobacterium tuberculosis, UniProt P9WMR3); experiment: DnaB intein splicing inhibitors, dose response, biochemical, cell-free fluorescence (AID 449749); type: functional
T5 sequence (P9WMR3 whole entry): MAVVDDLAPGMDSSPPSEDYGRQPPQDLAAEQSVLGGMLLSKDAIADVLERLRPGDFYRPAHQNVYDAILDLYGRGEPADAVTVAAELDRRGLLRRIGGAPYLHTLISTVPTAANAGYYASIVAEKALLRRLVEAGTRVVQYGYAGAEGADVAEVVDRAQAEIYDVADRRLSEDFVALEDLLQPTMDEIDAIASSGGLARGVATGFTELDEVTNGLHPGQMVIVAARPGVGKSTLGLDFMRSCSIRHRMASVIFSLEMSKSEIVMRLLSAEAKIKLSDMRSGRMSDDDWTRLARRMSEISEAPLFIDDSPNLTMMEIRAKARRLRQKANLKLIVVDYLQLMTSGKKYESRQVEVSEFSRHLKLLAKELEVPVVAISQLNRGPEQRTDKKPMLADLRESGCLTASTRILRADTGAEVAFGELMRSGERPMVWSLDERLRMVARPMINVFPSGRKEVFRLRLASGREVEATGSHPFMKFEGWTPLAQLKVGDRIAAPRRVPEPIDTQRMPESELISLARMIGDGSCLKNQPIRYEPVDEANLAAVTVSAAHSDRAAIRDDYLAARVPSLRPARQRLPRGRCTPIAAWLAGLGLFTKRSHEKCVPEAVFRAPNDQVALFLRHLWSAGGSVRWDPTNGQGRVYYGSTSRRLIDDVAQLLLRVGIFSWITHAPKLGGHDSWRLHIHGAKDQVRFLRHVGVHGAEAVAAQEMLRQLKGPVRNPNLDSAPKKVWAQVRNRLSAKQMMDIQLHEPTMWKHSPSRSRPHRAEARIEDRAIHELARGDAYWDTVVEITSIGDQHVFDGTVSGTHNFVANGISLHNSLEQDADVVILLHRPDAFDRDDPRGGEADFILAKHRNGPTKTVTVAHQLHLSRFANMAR

[5] = DRD fibroblast viability loss – cell-based, non-viral oncogenic, luminescence, dose response (AID 1934); type: functional; settings: Homo sapiens
BJ [6] = experiment: BJ-TERT fibroblast viability loss – cell-based, RAS-independent, luminescence, dose response (AID 1933); type: functional; settings: Homo sapiens
BJ [7] = experiment: cells; type: functional, cell-based; settings: Homo sapiens
Keap1/Nrf2 = Keap1/Nrf2 (Homo sapiens, UniProt Q14145); experiment: disruptors of Keap1 binding to Nrf2 peptide – biochemical, fluorescence polarization, cherry-picked samples, dose response (AID 588683)
INS1 = experiment: INS-1E survival protection against cytokine death – cell-based, luminescence, retest, dose response (AID 449756); type: functional; settings: Rattus norvegicus;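 also: cell death triggered by IL-1 beta plus TNF-alpha plus IFN-gamma mixture; protective hits raise ATP signal compared with cytokine alone wells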
BJ [8] = experiment: BJ-TERT-LT-ST fibroblast viability loss – cell-based, RAS-independent, luminescence, dose response (AID 1935); type: functional; settings: Homo sapiens;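 also: BJ fibroblasts immortalized with TERT plus LT and ST oncogenes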
HeLa = experiment: viability loss in HeLa cells – cell-based, 24 h, cherry-picked samples, cytotoxicity control, dose response (AID 504726); type: functional; settings: Homo sapiens;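 also: potency for cytotoxicity as loss of luminescence signal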
ORF 73 = target: T6, ORF 73 (Human herpesvirus 8, UniProt O40947); experiment: KSHV LANA DNA-binding disruption – biochemical, fluorescence polarization, cherry-picked samples, dose response (AID 504725); set-up: species or system Human gammaherpesvirus 8;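 also: fluorescence polarization of a labeled DNA duplex reporting LANA DNA binding; potency is for inhibitors that block LANA binding to the DNA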
T6 sequence (O40947 whole entry): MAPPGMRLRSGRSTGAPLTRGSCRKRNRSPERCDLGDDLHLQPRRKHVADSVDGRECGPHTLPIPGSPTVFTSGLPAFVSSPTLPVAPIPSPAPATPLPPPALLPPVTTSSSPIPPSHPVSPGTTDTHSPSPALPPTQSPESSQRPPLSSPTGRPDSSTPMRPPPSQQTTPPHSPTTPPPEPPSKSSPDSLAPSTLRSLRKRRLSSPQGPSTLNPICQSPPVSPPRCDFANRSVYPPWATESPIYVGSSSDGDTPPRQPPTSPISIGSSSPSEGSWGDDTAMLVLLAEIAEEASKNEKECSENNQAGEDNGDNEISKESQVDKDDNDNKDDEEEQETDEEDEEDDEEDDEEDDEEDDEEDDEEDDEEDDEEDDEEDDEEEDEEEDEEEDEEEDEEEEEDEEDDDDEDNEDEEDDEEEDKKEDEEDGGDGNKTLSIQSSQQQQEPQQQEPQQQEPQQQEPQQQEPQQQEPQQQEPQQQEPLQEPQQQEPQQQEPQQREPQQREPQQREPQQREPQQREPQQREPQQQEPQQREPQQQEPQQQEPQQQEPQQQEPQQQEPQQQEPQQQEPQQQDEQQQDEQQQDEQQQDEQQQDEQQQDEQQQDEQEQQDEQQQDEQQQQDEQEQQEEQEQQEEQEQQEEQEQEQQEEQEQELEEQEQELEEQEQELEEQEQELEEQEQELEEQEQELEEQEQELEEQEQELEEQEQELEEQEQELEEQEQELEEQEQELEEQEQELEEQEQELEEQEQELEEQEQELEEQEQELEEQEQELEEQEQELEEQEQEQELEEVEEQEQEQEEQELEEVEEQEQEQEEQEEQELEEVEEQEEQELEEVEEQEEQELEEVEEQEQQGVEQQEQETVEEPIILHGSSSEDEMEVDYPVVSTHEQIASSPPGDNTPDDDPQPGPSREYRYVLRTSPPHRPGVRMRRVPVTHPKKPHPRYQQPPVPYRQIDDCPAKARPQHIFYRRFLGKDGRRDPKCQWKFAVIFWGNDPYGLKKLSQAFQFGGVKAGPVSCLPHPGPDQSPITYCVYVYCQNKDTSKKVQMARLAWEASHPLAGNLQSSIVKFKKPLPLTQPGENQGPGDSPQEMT

Protein S100-A4 = Protein S100-A4 (Homo sapiens, UniProt P26447); experiment: human S100A4 peptide interaction inhibition curves – biochemical, fluorescence polarization, cherry-picked hits, dose response (AID 687001); type: functional
Plasmodium falciparum [9] = experiment: Primary qHTS for delayed death inhibitors of the malarial parasite plastid, 48 hour incubation. [Related pubchem assays (depositor defined):AID488752, AID488774, AID504848, AID504850]; type: functional; settings: read-out: Potency
Plasmodium falciparum [10] = experiment: Primary qHTS for delayed death inhibitors of the malarial parasite plastid, 96 hour incubation. [Related pubchem assays (depositor defined):AID488745, AID488752, AID488774, AID504848, AID504850]; type: functional; settings: read-out: Potency

Hexokinase-1, sequence (P19367 whole entry, the tested form may be a part): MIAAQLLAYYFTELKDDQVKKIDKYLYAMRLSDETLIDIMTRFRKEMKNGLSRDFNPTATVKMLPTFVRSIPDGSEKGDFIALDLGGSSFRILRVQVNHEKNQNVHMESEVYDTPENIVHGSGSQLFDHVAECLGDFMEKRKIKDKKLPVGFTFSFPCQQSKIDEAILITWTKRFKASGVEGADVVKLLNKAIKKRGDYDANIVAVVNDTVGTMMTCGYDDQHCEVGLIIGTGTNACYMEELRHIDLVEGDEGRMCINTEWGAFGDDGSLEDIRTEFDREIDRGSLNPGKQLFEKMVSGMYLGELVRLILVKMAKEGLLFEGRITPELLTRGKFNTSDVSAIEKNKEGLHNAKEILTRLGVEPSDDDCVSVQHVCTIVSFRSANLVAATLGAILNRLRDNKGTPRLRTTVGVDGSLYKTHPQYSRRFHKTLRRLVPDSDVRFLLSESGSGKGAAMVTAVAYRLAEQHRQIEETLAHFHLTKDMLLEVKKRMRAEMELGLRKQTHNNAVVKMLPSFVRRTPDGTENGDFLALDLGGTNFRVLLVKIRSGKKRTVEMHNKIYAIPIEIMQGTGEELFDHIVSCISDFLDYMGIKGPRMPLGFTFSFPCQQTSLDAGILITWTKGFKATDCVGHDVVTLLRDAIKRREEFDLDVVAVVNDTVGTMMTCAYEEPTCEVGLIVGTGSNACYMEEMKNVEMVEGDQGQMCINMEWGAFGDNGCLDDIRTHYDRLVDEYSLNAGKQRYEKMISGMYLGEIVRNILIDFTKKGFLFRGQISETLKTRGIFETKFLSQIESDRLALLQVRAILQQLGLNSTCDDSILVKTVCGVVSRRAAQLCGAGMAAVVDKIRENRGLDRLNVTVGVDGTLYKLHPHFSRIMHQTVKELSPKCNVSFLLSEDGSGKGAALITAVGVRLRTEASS
Protein S100-A4, sequence (P26447 whole entry): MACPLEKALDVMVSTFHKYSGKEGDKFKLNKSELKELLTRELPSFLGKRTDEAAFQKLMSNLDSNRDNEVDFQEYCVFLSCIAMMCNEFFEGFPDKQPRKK
Keap1/Nrf2, sequence (Q16236 whole entry): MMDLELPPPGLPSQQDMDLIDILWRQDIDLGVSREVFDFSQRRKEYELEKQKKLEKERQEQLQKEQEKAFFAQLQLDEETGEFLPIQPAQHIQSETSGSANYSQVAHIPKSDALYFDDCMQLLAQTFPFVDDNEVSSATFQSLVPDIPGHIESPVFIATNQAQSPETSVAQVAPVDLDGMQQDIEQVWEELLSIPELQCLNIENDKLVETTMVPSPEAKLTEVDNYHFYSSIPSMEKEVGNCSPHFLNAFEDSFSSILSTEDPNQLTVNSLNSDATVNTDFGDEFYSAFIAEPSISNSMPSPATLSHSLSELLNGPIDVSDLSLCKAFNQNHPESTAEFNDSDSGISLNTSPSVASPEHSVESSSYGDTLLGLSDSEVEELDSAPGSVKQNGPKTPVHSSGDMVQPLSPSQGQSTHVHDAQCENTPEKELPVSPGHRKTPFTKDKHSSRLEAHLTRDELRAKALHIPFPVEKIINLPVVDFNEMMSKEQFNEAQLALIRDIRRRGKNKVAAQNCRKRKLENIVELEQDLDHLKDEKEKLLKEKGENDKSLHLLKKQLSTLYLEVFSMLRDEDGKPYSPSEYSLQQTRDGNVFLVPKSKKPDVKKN
Keap1/Nrf2, sequence (Q14145 whole entry): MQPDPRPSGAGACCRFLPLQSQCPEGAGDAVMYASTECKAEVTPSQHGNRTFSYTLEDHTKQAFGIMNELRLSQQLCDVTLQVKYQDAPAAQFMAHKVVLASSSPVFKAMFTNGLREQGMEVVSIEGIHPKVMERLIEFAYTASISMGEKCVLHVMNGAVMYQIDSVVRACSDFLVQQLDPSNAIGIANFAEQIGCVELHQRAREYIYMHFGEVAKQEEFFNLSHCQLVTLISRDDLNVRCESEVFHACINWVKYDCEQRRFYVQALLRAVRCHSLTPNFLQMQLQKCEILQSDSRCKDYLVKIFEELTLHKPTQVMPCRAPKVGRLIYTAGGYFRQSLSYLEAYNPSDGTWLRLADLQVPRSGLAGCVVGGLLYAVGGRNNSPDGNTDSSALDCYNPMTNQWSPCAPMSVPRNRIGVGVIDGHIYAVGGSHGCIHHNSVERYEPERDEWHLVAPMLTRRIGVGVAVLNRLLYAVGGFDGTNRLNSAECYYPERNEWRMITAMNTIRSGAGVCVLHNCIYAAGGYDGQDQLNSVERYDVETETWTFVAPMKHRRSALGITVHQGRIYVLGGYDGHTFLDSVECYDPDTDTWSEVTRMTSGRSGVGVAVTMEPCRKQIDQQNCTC
UDP-galactopyranose mutase, sequence (P9WIQ1 whole entry): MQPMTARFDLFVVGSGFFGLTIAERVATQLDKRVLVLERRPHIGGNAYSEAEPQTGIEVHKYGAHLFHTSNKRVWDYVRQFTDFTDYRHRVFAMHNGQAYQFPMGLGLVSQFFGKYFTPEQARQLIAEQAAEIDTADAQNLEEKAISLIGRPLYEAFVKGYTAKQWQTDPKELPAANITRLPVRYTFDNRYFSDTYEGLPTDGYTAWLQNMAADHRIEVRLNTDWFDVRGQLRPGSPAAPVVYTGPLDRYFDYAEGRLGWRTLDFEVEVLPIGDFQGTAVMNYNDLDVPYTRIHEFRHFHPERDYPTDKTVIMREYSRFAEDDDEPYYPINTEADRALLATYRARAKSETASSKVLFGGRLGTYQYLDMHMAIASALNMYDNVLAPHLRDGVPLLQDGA

COCCNC(=O)Cn1cc(/C=C2\C(=O)NC(=O)N(c3ccccc3F)C2=O)c2ccccc21
EC50 [1]: 6.32 µM (active) | AC50 [2]: 32.1 µM (active)

CC(C)CSc1nnc2c3ccccc3n(C)c2n1
IC50 [3]: > 67.5 µM (inactive) | IC50 (cells): > 138 µM (inactive) | IC50 (Major prion protein): 4.37 µM (active) | IC50 (HEK293): > 67.5 µM (inactive)

COc1cc2c(cc1OC)-c1cc(NCc3ccccc3)nc(=O)n1CC2
IC50 (Hexokinase HKDC1): > 80 µM (inactive) | IC50 (Hexokinase-1): > 80 µM (inactive)

CN1CCN(c2ccc([N+](=O)[O-])c3no[n+]([O-])c23)CC1
EC50 (Protein RecA): > 380 µM (inactive) | AC50 [4]: > 380 µM (inactive) | EC50 [5]: 5.89 µM (active) | EC50 (BJ [6]): 0.793 µM (active) | EC50 (BJ [7]): 2.37 µM (inconclusive) | AC50 (Keap1/Nrf2): > 52 µM (inactive) | AC50 (INS1): 1.83 µM (active) | EC50 (BJ [8]): 1.13 µM (inconclusive) | AC50 (HeLa): 2.57 µM (active) | AC50 (ORF 73): 12.6 µM (active) | AC50 (Protein S100-A4): 3.3 µM (active)

CN(C)C1(CNC(=O)c2ccc(Cl)c(S(N)(=O)=O)c2)CCCCC1
AC50 (Plasmodium falciparum [9]): 9.29 µM (inactive) | AC50 (Plasmodium falciparum [10]): 20.8 µM (inactive)

Reference: ChEMBL document CHEMBL1201862, “PubChem BioAssay data set” (2004)
